“And” between values parts separate entries of the source, which are not always exact repeats. Identical values can stand only once.
What was measured:
in vitro = details: human
Procedure: (§1) First, HepG2 cells were cultured at 37° C. under 5% CO2 atmosphere in a DMEM culture medium containing 10% FBS. Then, the cultured HepG2 cells were seeded on a 24-well plate at a cell density of 3×10^5 cells/well, followed by incubation for 1 day. Then, various concentrations of test substances were added to HepG2 cells, followed by incubation for 24 hours.
(§2) An MTT solution dissolved in PBS at a concentration of 5 mg/mL was diluted to 10% with the culture medium. The solution was dispensed in a volume of 0.5 to 1.0 mL in a 24-well plate and incubated for 4 hours in an incubator.
(§3) After 4 hours of incubation, the culture medium containing the MTT solution was removed, and 1 mL of DMSO was added and was shaken for 10 minutes. Then, absorbance was measured at 540 nm. At this time, as positive controls, the cells were treated with (1) 100 mM ethanol and (2) 100 mM ethanol+100 ppm Silymarin, respectively.
(§4) As a result of the experiment, liver cell viability was quantified. That is, as liver cell viability increases, the liver health improvement effect increases.
(§5) As the absorbance value increases, liver cell viability increases.

HepG2 cells = assay: in vitro; details: human, 24 h, 100 mM
Procedure: as §1, §2, §3, §4, §5

[1] = system: THP-1 cells and NK-92 cells; assay: Interferon gamma (IFN-γ) production, ELISA; format: cell-based; details: positive control
Procedure: To confirm the immune function improvement effect of the plant extracts, the amount of interferon gamma produced in […] and macrophages was measured. First, THP-1 cells, which are macrophages, and NK-92 cells, which are natural killer cells, were suspended in an RPMI (Roswell Park Memorial Institute)-1640 culture medium (for THP-1 cells) and a MEMA (Minimum Essential Media Alpha) culture medium (for NK-92 cells), respectively. The suspended cells were seeded on culture plates (24 wells/96 wells). The plant extracts (sample) diluted to various concentrations were added to the cells. At this time, lipopolysaccharide (LPS) (0.1 to 1 μg/mL) was used as a positive control. The sample-treated cells were placed in a 5% CO2 incubator set to 37° C. and incubated for 24 to 48 hours. Then, the supernatant was taken and used as an analysis sample.
The experiment was performed using an enzyme-linked immunosorbent assay (ELISA) method. After coating a 96-well plate with an IFN-γ primary antibody, 1% bovine serum albumin (BSA) was added to block the remaining space. Then, distilled water (blank), an IFN-γ standard solution, and each sample were added to the wells in an amount of 100 μl and incubated at room temperature for 2 hours. 100 μl of a biotin-bound IFN-γ secondary antibody was added to the wells and incubated at room temperature for 2 hours. 100 μl of avidin-bound horseradish peroxidase (HRP) was added and incubated at room temperature or 37° C. for 30 minutes. 100 μl of a TMB substrate solution was added and incubated at room temperature for 4 to 14 minutes. 50 μl of a stop solution (sulfuric acid) was added to stop the reaction. Absorbance at 450 nm wavelength was measured using an ELISA reader. The IFN-γ content of each sample was calculated based on the absorbance of the standard solution.
In this experiment, the effect of the plant extracts on production of interferon gamma was confirmed. As a result of the experiment, the amount of interferon gamma was quantified. As the level of interferon gamma increases, the degree of improvement in immune function increases.
The absorbance is proportional to the IFN-γ content. In addition, increase in IFN-γ production means that immunity is enhanced, such as promotion of differentiation of T lymphocytes, activation of macrophages, and promotion of production of IgG antibodies in B cells.

Compound	viability at 24 h, 100 mM (in vitro) [%]	Liver health-Cell viability (% of control) (HepG2 cells)	Immunity-IFNg secretion ([1]; 1 ppm)	Immunity-IFNg secretion (% of control) ([1]; 1 ppm)	Immunity-IFNg secretion ([1]; LPS 1 ppm)	Immunity-IFNg secretion (% of control) ([1]; LPS 1 ppm)
CCO [Ethanol]	68.2	68.25 (Ethanol % of control				
lipopolysaccharide [LPS]			964.24 % of control	964.24 % of control and 964.24 (LPS % of control	964.24 % of control	964.24 % of control

Source: patent US20230125075A1, “Composition Containing Paper Mulberry Extracts” (LG Household & Health Care Ltd., priority 2020, published 2023)
